Values belong to the compound of their own block, whether it stands above or below them.
System: 624824-186-R-J2-PDC multicell spheroids, viability
Experiment: Anticancer human tumor 624824-186-R-J2-PDC patient-derived colon adenocarcinoma cell line growth inhibition [PI3K]
Conditions: for IC50: curve of first compound; for viability, T/C: stronger effect = lower value
Summary of the method: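 Spheroid viability read-out. Co-cultures contained the tumor line plus HUVEC and human MSCs. Each agent was paired with a PI3K inhibitor (inavolisib, alpelisib, duvelisib, copanlisib) across half-log dilutions starting at clinical Cmax, or at 10 microM when Cmax was unknown.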

[1] = second compound 0.0316 µM, first compound 0.000316 µM
[2] = second compound 0.0316 µM, first compound 0.001 µM
[3] = second compound 0.0316 µM, first compound 0.00316 µM
[4] = second compound 0.0316 µM, first compound 0.01 µM
[5] = second compound 0.0316 µM, first compound 0.0316 µM
[6] = second compound 0.0316 µM, first compound 0.1 µM
[7] = second compound 0.1 µM, first compound 0.000316 µM
[8] = second compound 0.1 µM, first compound 0.001 µM
[9] = second compound 0.1 µM, first compound 0.00316 µM
[10] = second compound 0.1 µM, first compound 0.01 µM
[11] = second compound 0.1 µM, first compound 0.0316 µM
[12] = second compound 0.1 µM, first compound 0.1 µM
[13] = second compound 0.316 µM, first compound 0.000316 µM
[14] = second compound 0.316 µM, first compound 0.001 µM
[15] = second compound 0.316 µM, first compound 0.00316 µM
[16] = second compound 0.316 µM, first compound 0.01 µM
[17] = second compound 0.316 µM, first compound 0.0316 µM
[18] = second compound 0.316 µM, first compound 0.1 µM
[19] = second compound 1 µM, first compound 0.000316 µM
[20] = second compound 1 µM, first compound 0.001 µM
[21] = second compound 1 µM, first compound 0.00316 µM
[22] = second compound 1 µM, first compound 0.01 µM
[23] = second compound 1 µM, first compound 0.0316 µM
[24] = second compound 1 µM, first compound 0.1 µM
[25] = second compound 3.16 µM, first compound 0.000316 µM
[26] = second compound 3.16 µM, first compound 0.001 µM
[27] = second compound 3.16 µM, first compound 0.00316 µM
[28] = second compound 3.16 µM, first compound 0.01 µM
[29] = second compound 3.16 µM, first compound 0.0316 µM
[30] = second compound 3.16 µM, first compound 0.1 µM
[31] = second compound 10 µM, first compound 0.000316 µM
[32] = second compound 10 µM, first compound 0.001 µM
[33] = second compound 10 µM, first compound 0.00316 µM
[34] = second compound 10 µM, first compound 0.01 µM
[35] = second compound 10 µM, first compound 0.0316 µM
[36] = second compound 10 µM, first compound 0.1 µM
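Note: spheroids exposed to agents for 7 days before viability read.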
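Throughout, for viability, T/C: 100% = DMSO vehicle treated spheroids.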

IC50 (second compound 0.0316 µM): > 0.1 µM
IC50 (second compound 0.1 µM): > 0.1 µM
IC50 (second compound 0.316 µM): > 0.1 µM
IC50 (second compound 1 µM): > 0.1 µM
IC50 (second compound 3.16 µM): > 0.1 µM
IC50 (second compound 10 µM): > 0.1 µM
Structure (SMILES): CC(=O)c1c(C)c2cnc(Nc3ccc(N4CCNCC4)cn3)nc2n(C2CCCC2)c1=O + CC(Nc1ncnc2nc[nH]c12)c1cc2cccc(Cl)c2c(=O)n1-c1ccccc1
viability, T/C [1]: 78.8%
viability, T/C [2]: 118%
viability, T/C [3]: 98.7%
viability, T/C [4]: 98.5%
viability, T/C [5]: 80.5%
viability, T/C [6]: 86.1%
viability, T/C [7]: 107%
viability, T/C [8]: 85.2%
viability, T/C [9]: 84.4%
viability, T/C [10]: 79.9%
viability, T/C [11]: 90%
viability, T/C [12]: 93.5%
viability, T/C [13]: 121%
viability, T/C [14]: 134%
viability, T/C [15]: 79.8%
viability, T/C [16]: 77.5%
viability, T/C [17]: 78.2%
viability, T/C [18]: 93%
viability, T/C [19]: 111%
viability, T/C [20]: 96.6%
viability, T/C [21]: 89.5%
viability, T/C [22]: 108%
viability, T/C [23]: 88.6%
viability, T/C [24]: 92.6%
viability, T/C [25]: 98.8%
viability, T/C [26]: 83.6%
viability, T/C [27]: 91.9%
viability, T/C [28]: 111%
viability, T/C [29]: 88.5%
viability, T/C [30]: 84%
viability, T/C [31]: 112%
viability, T/C [32]: 110%
viability, T/C [33]: 107%
viability, T/C [34]: 96.3%
viability, T/C [35]: 92.4%
viability, T/C [36]: 94%

IC50 (second compound 0.0316 µM): > 0.1 µM
IC50 (second compound 0.1 µM): > 0.1 µM
IC50 (second compound 0.316 µM): > 0.1 µM
IC50 (second compound 1 µM): > 0.1 µM
IC50 (second compound 3.16 µM): > 0.1 µM
IC50 (second compound 10 µM): > 0.1 µM
Structure (SMILES): CC(C)n1nc(-c2ccc3oc(N)nc3c2)c2c(N)ncnc21 + CC(Nc1ncnc2nc[nH]c12)c1cc2cccc(Cl)c2c(=O)n1-c1ccccc1
viability, T/C [1]: 108%
viability, T/C [2]: 113%
viability, T/C [3]: 83%
viability, T/C [4]: 76.7%
viability, T/C [5]: 75.7%
viability, T/C [6]: 77.9%
viability, T/C [7]: 94.3%
viability, T/C [8]: 81.9%
viability, T/C [9]: 105%
viability, T/C [10]: 85.8%
viability, T/C [11]: 81.5%
viability, T/C [12]: 75.2%
viability, T/C [13]: 87.5%
viability, T/C [14]: 77.3%
viability, T/C [15]: 73.6%
viability, T/C [16]: 83.3%
viability, T/C [17]: 86.8%
viability, T/C [18]: 75.8%
viability, T/C [19]: 93.2%
viability, T/C [20]: 99%
viability, T/C [21]: 91.6%
viability, T/C [22]: 79.2%
viability, T/C [23]: 84.8%
viability, T/C [24]: 90.6%
viability, T/C [25]: 101%
viability, T/C [26]: 90.5%
viability, T/C [27]: 82.3%
viability, T/C [28]: 90.5%
viability, T/C [29]: 87.7%
viability, T/C [30]: 78.2%
viability, T/C [31]: 109%
viability, T/C [32]: 96.7%
viability, T/C [33]: 82.7%
viability, T/C [34]: 95.5%
viability, T/C [35]: 81.2%
viability, T/C [36]: 78.6%
